Source: PubChem BioAssay AID2060904 (Molecular Pharmacology Branch, DTP, NCI, 2025)

Test system: 349418-098-R-PDC complex spheroid viability
Assay: Anticancer human tumor 349418-098-R-PDC patient-derived lung adenocarcinoma cell line growth inhibition [RAS]
Details: for IC50: curve of first compound; for viability, T/C: stronger effect = lower value
How it was run: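 Multi-cell-type spheroids: tumor cells plus HUVEC endothelial cells and mesenchymal stem cells. RAS-pathway inhibitors were combined with targeted agents, each dosed in half-log steps down from clinical Cmax, or from 10 microM when Cmax was unknown.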

[1] = second compound 0.000949 µM, first compound 0.0316 µM
[2] = second compound 0.000949 µM, first compound 0.1 µM
[3] = second compound 0.000949 µM, first compound 0.316 µM
[4] = second compound 0.000949 µM, first compound 1 µM
[5] = second compound 0.000949 µM, first compound 3.16 µM
[6] = second compound 0.000949 µM, first compound 10 µM
[7] = second compound 0.003 µM, first compound 0.0316 µM
[8] = second compound 0.003 µM, first compound 0.1 µM
[9] = second compound 0.003 µM, first compound 0.316 µM
[10] = second compound 0.003 µM, first compound 1 µM
[11] = second compound 0.003 µM, first compound 3.16 µM
[12] = second compound 0.003 µM, first compound 10 µM
[13] = second compound 0.00949 µM, first compound 0.0316 µM
[14] = second compound 0.00949 µM, first compound 0.1 µM
[15] = second compound 0.00949 µM, first compound 0.316 µM
[16] = second compound 0.00949 µM, first compound 1 µM
[17] = second compound 0.00949 µM, first compound 3.16 µM
[18] = second compound 0.00949 µM, first compound 10 µM
[19] = second compound 0.03 µM, first compound 0.0316 µM
[20] = second compound 0.03 µM, first compound 0.1 µM
[21] = second compound 0.03 µM, first compound 0.316 µM
[22] = second compound 0.03 µM, first compound 1 µM
[23] = second compound 0.03 µM, first compound 3.16 µM
[24] = second compound 0.03 µM, first compound 10 µM
[25] = second compound 0.0949 µM, first compound 0.0316 µM
[26] = second compound 0.0949 µM, first compound 0.1 µM
[27] = second compound 0.0949 µM, first compound 0.316 µM
[28] = second compound 0.0949 µM, first compound 1 µM
[29] = second compound 0.0949 µM, first compound 3.16 µM
[30] = second compound 0.0949 µM, first compound 10 µM
[31] = second compound 0.3 µM, first compound 0.0316 µM
[32] = second compound 0.3 µM, first compound 0.1 µM
[33] = second compound 0.3 µM, first compound 0.316 µM
[34] = second compound 0.3 µM, first compound 1 µM
[35] = second compound 0.3 µM, first compound 3.16 µM
[36] = second compound 0.3 µM, first compound 10 µM
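Further: spheroids exposed to compound for seven days before viability readout.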

CC(C)NCC(C(=O)N1CCN(c2ncnc3c2C(C)CC3O)CC1)c1ccc(Cl)cc1 (stereo unspecified) + CCn1c(-c2cc(N3CCN(C)CC3)cnc2C(C)OC)c2c3cc(ccc31)-c1csc(n1)CC(NC(=O)C1CC1C)C(=O)N1CCCC(N1)C(=O)OCC(C)(C)C2
IC50 (second compound 0.000949 µM): 0.843 µM
IC50 (second compound 0.003 µM): 0.831 µM
IC50 (second compound 0.00949 µM): 1.15 µM
IC50 (second compound 0.03 µM): 0.864 µM
IC50 (second compound 0.0949 µM): 1.19 µM
IC50 (second compound 0.3 µM): 0.829 µM
viability, T/C [1]: 97%
viability, T/C [2]: 86.3%
viability, T/C [3]: 71.5%
viability, T/C [4]: 47.3%
viability, T/C [5]: 23.5%
viability, T/C [6]: 14.2%
viability, T/C [7]: 117%
viability, T/C [8]: 101%
viability, T/C [9]: 70.2%
viability, T/C [10]: 45.8%
viability, T/C [11]: 28.4%
viability, T/C [12]: 15.1%
viability, T/C [13]: 110%
viability, T/C [14]: 97.6%
viability, T/C [15]: 78.9%
viability, T/C [16]: 53%
viability, T/C [17]: 29.3%
viability, T/C [18]: 14.8%
viability, T/C [19]: 113%
viability, T/C [20]: 90.1%
viability, T/C [21]: 61.3%
viability, T/C [22]: 45.9%
viability, T/C [23]: 34.6%
viability, T/C [24]: 11.4%
viability, T/C [25]: 108%
viability, T/C [26]: 118%
viability, T/C [27]: 90.3%
viability, T/C [28]: 54.5%
viability, T/C [29]: 25.4%
viability, T/C [30]: 10.8%
viability, T/C [31]: 113%
viability, T/C [32]: 104%
viability, T/C [33]: 76.4%
viability, T/C [34]: 38.6%
viability, T/C [35]: 36%
viability, T/C [36]: 11.6%

CC(C)n1nc(-c2ccc3oc(N)nc3c2)c2c(N)ncnc21 + CCn1c(-c2cc(N3CCN(C)CC3)cnc2C(C)OC)c2c3cc(ccc31)-c1csc(n1)CC(NC(=O)C1CC1C)C(=O)N1CCCC(N1)C(=O)OCC(C)(C)C2
IC50 (second compound 0.000949 µM): 0.0023 µM
IC50 (second compound 0.003 µM): 0.00306 µM
IC50 (second compound 0.00949 µM): 0.00279 µM
IC50 (second compound 0.03 µM): 0.00357 µM
IC50 (second compound 0.0949 µM): 0.00199 µM
IC50 (second compound 0.3 µM): 0.00349 µM
viability, T/C (second compound 0.000949 µM, first compound 0.000316 µM): 97.9%
viability, T/C (second compound 0.000949 µM, first compound 0.001 µM): 75.8%
viability, T/C (second compound 0.000949 µM, first compound 0.00316 µM): 37.8%
viability, T/C (second compound 0.000949 µM, first compound 0.01 µM): 22.4%
viability, T/C [1]: 8.76%
viability, T/C [2]: 7.18%
viability, T/C (second compound 0.003 µM, first compound 0.000316 µM): 87%
viability, T/C (second compound 0.003 µM, first compound 0.001 µM): 66.9%
viability, T/C (second compound 0.003 µM, first compound 0.00316 µM): 54.9%
viability, T/C (second compound 0.003 µM, first compound 0.01 µM): 18.6%
viability, T/C [7]: 7.75%
viability, T/C [8]: 6.04%
viability, T/C (second compound 0.00949 µM, first compound 0.000316 µM): 106%
viability, T/C (second compound 0.00949 µM, first compound 0.001 µM): 84.4%
viability, T/C (second compound 0.00949 µM, first compound 0.00316 µM): 46.3%
viability, T/C (second compound 0.00949 µM, first compound 0.01 µM): 16.6%
viability, T/C [13]: 7.24%
viability, T/C [14]: 5.27%
viability, T/C (second compound 0.03 µM, first compound 0.000316 µM): 100%
viability, T/C (second compound 0.03 µM, first compound 0.001 µM): 98.3%
viability, T/C (second compound 0.03 µM, first compound 0.00316 µM): 54.4%
viability, T/C (second compound 0.03 µM, first compound 0.01 µM): 11.8%
viability, T/C [19]: 8.66%
viability, T/C [20]: 6.68%
viability, T/C (second compound 0.0949 µM, first compound 0.000316 µM): 111%
viability, T/C (second compound 0.0949 µM, first compound 0.001 µM): 67.4%
viability, T/C (second compound 0.0949 µM, first compound 0.00316 µM): 39.3%
viability, T/C (second compound 0.0949 µM, first compound 0.01 µM): 18.7%
viability, T/C [25]: 7.91%
viability, T/C [26]: 5.64%
viability, T/C (second compound 0.3 µM, first compound 0.000316 µM): 94.7%
viability, T/C (second compound 0.3 µM, first compound 0.001 µM): 87.2%
viability, T/C (second compound 0.3 µM, first compound 0.00316 µM): 53.6%
viability, T/C (second compound 0.3 µM, first compound 0.01 µM): 14.6%
viability, T/C [31]: 8.69%
viability, T/C [32]: 6.51%

CC(Nc1ccc2c(c1)OCCn1cc(N3C(=O)OCC3C(F)F)nc1-2)C(N)=O (stereo unspecified) + CCn1c(-c2cc(N3CCN(C)CC3)cnc2C(C)OC)c2c3cc(ccc31)-c1csc(n1)CC(NC(=O)C1CC1C)C(=O)N1CCCC(N1)C(=O)OCC(C)(C)C2
IC50 (second compound 0.000949 µM): 0.127 µM
IC50 (second compound 0.003 µM): 0.0938 µM
IC50 (second compound 0.00949 µM): 0.158 µM
IC50 (second compound 0.03 µM): 0.0916 µM
IC50 (second compound 0.0949 µM): 0.145 µM
IC50 (second compound 0.3 µM): 0.169 µM
viability, T/C [1]: 75.9%
viability, T/C [2]: 56.3%
viability, T/C [3]: 25.9%
viability, T/C [4]: 19.5%
viability, T/C [5]: 25.7%
viability, T/C [6]: 14.8%
viability, T/C [7]: 78.6%
viability, T/C [8]: 49.9%
viability, T/C [9]: 25.1%
viability, T/C [10]: 25.5%
viability, T/C [11]: 15.4%
viability, T/C [12]: 13.2%
viability, T/C [13]: 85.8%
viability, T/C [14]: 57.5%
viability, T/C [15]: 39.6%
viability, T/C [16]: 21.4%
viability, T/C [17]: 20.3%
viability, T/C [18]: 14%
viability, T/C [19]: 76.4%
viability, T/C [20]: 44.7%
viability, T/C [21]: 36.8%
viability, T/C [22]: 21.9%
viability, T/C [23]: 16.7%
viability, T/C [24]: 17.3%
viability, T/C [25]: 77.8%
viability, T/C [26]: 59.2%
viability, T/C [27]: 30.7%
viability, T/C [28]: 21.5%
viability, T/C [29]: 25.5%
viability, T/C [30]: 15.9%
viability, T/C [31]: 89.2%
viability, T/C [32]: 57.2%
viability, T/C [33]: 42%
viability, T/C [34]: 26.8%
viability, T/C [35]: 26.6%
viability, T/C [36]: 18.8%
